The values that follow come from ChEMBL document CHEMBL3745672, “Novel compounds reducing IRS-1 serine phosphorylation for treatment of diabetes” (Bioorg Med Chem Lett, 2016).

Experiment [1] has as its target Serine/threonine-protein kinase PAK 4 (Homo sapiens) (UniProt O96013). Put plainly: Inhibition of PAK4 (unknown origin) at 1 uM.
Experiment [2] concerns the target T1, Inhibitor of nuclear factor kappa-B kinase subunit beta (Homo sapiens) (UniProt O14920).
T1 sequence (whole entry): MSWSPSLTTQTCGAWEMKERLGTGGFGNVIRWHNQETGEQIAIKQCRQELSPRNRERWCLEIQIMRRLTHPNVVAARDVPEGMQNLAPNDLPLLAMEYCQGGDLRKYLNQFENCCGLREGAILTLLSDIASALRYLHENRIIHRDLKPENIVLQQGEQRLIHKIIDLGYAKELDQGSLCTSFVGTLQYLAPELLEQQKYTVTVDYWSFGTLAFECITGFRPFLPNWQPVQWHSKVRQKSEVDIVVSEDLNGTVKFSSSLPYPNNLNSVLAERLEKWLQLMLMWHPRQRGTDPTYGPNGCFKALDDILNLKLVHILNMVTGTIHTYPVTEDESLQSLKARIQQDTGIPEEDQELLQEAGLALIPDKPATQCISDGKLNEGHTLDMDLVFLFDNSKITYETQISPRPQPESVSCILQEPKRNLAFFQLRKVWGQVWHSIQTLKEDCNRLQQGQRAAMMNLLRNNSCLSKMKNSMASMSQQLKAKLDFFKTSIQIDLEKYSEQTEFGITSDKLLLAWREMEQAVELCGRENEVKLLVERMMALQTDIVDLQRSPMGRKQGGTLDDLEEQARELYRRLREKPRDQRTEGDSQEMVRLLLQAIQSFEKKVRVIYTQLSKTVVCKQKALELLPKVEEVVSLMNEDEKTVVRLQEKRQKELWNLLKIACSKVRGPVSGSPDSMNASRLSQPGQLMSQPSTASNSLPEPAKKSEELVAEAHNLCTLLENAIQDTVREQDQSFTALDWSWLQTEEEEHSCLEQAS
Description: Inhibition of IKKbeta (unknown origin) at 1 uM.

Experiment [3] has as its target Cyclin-dependent kinase 4/cyclin D1 (Homo sapiens) (UniProt P11802+P24385). Put plainly: Inhibition of CDK4/cyclin D1 (unknown origin) at 1 uM. The class given is protein-complex assay.
The target of experiment [4] is RAC-alpha serine/threonine-protein kinase (Homo sapiens) (UniProt P31749). Put plainly: Inhibition of AKT1 (unknown origin) at 1 uM.
For experiment [5], the target named is Tyrosine-protein kinase CSK (Homo sapiens) (UniProt P41240). Description: Inhibition of CSK (unknown origin) at 1 uM.
The target of experiment [6] is Protein kinase C alpha type (Homo sapiens) (UniProt P17252). Put plainly: Inhibition of PKCalpha (unknown origin) at 1 uM.
Experiment [7] addresses T2, Tyrosine-protein kinase JAK3 (Homo sapiens) (UniProt P52333).
T2 sequence (whole entry): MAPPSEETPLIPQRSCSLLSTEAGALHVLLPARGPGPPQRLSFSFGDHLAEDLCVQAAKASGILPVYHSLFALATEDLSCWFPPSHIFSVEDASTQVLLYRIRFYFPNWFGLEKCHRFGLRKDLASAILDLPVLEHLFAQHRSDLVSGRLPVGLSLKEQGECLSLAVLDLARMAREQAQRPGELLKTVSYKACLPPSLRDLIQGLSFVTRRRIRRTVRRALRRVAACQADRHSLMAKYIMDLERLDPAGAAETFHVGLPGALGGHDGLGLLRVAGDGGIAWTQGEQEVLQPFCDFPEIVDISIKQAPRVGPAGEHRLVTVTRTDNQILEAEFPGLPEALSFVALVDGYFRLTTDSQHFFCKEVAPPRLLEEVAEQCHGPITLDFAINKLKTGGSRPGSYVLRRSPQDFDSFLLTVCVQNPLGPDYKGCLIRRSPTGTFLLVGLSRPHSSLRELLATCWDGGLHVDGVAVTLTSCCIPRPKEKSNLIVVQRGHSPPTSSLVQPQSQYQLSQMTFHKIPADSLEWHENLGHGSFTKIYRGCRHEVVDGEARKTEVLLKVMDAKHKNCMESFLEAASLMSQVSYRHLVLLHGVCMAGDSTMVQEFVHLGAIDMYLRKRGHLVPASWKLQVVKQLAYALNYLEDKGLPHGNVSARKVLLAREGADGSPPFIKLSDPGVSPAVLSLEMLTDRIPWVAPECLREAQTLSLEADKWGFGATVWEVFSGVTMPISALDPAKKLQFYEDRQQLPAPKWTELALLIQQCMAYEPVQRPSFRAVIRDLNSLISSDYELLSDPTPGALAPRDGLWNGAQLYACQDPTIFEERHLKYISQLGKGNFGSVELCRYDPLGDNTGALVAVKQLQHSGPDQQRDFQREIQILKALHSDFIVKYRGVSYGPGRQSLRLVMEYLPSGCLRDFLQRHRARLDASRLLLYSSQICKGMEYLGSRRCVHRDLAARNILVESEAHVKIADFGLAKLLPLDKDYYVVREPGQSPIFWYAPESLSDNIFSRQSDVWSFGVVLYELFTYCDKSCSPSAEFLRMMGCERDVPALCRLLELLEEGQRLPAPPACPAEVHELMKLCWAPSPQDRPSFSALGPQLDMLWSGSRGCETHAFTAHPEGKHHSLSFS
Put plainly: Inhibition of JAK3 (unknown origin) at 1 uM.

The target in experiment [8] is Death-associated protein kinase 3 (Homo sapiens) (UniProt O43293). Description: Inhibition of DAPK3 (unknown origin) at 1 uM.
Experiment [9] concerns the target Platelet-derived growth factor receptor beta (Homo sapiens) (UniProt P09619). Description: Inhibition of PDGFRbeta (unknown origin) at 1 uM.
In experiment [10] the target is T3, Aurora kinase A (Homo sapiens) (UniProt O14965).
T3 sequence (whole entry): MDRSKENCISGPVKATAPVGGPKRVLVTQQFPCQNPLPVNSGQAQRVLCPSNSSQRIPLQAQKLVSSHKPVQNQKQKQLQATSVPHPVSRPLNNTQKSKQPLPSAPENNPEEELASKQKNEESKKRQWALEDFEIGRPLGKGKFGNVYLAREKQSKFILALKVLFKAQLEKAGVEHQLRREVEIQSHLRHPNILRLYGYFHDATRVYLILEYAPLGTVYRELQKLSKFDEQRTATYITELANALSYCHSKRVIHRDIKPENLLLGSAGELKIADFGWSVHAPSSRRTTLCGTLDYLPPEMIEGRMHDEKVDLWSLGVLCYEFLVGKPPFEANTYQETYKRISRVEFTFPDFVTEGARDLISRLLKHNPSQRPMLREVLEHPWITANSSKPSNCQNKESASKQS
Description: Inhibition of AurA (unknown origin) at 1 uM.

In experiment [11] the target is Serine/threonine-protein kinase PAK 1 (Homo sapiens) (UniProt Q13153). Description: Inhibition of PAK1 (unknown origin) at 1 uM.
Experiment [12] addresses Mitogen-activated protein kinase 3 (Homo sapiens) (UniProt P27361). Put plainly: Inhibition of ERK1 (unknown origin) at 1 uM.
In experiment [13] the target is Mast/stem cell growth factor receptor Kit (Homo sapiens) (UniProt P10721). Put plainly: Inhibition of cKIT (unknown origin) at 1 uM.
In experiment [14] the target is Proto-oncogene tyrosine-protein kinase Src (Homo sapiens) (UniProt P12931). Put plainly: Inhibition of SRC (unknown origin) at 1 uM.
Sequence of Proto-oncogene tyrosine-protein kinase Src (Homo sapiens) (P12931 2-536 limits assumed): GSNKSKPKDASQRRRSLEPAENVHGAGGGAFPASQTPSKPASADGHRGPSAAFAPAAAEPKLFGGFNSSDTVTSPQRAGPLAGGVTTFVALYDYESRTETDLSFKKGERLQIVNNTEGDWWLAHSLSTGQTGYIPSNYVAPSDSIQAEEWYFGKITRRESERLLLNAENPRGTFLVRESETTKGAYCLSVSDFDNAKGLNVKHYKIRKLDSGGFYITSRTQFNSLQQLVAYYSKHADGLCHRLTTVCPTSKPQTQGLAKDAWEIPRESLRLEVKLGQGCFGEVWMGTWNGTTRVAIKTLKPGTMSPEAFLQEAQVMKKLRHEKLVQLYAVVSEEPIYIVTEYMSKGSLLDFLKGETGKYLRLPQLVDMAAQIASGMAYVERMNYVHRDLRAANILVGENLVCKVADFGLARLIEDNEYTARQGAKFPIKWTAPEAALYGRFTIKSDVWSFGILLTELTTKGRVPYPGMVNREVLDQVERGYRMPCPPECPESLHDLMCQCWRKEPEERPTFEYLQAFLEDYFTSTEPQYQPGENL

Sequence of RAC-alpha serine/threonine-protein kinase (Homo sapiens) (P31749 whole entry): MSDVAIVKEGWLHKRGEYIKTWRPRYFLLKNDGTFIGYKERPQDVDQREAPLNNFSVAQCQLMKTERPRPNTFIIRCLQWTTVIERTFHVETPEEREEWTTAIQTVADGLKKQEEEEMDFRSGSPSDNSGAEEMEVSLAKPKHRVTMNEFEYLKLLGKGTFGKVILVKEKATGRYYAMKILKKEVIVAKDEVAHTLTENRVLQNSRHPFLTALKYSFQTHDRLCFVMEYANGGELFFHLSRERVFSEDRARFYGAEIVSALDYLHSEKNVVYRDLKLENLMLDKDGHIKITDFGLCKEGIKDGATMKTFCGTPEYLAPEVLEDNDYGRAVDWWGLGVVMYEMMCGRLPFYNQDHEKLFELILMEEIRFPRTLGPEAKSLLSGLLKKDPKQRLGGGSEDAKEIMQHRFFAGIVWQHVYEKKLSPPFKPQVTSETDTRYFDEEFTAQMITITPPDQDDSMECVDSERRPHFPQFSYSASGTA
Sequence of Mitogen-activated protein kinase 3 (Homo sapiens) (P27361 whole entry): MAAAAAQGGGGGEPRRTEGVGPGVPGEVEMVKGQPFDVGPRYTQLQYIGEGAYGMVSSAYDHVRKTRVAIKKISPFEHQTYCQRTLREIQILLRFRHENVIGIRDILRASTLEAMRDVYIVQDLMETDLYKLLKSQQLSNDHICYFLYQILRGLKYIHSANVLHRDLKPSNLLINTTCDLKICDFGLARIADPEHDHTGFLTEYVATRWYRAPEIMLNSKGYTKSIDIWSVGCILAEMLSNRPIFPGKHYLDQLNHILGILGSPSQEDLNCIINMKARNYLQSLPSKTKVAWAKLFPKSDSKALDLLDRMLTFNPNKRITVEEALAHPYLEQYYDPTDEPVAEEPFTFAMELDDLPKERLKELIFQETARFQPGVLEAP
Sequence of Death-associated protein kinase 3 (Homo sapiens) (O43293 whole entry, looked up): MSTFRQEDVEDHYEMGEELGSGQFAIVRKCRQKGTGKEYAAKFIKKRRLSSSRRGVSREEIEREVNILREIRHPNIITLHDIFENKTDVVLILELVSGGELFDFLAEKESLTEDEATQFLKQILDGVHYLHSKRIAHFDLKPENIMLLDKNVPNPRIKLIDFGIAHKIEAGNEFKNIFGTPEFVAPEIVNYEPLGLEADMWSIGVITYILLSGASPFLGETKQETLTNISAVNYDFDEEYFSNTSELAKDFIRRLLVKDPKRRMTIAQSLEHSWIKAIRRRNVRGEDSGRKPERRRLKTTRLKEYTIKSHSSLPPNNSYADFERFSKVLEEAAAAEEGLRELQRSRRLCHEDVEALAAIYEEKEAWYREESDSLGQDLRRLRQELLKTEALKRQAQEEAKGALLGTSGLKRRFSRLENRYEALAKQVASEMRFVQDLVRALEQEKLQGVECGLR
Sequence of Platelet-derived growth factor receptor beta (Homo sapiens) (P09619 whole entry): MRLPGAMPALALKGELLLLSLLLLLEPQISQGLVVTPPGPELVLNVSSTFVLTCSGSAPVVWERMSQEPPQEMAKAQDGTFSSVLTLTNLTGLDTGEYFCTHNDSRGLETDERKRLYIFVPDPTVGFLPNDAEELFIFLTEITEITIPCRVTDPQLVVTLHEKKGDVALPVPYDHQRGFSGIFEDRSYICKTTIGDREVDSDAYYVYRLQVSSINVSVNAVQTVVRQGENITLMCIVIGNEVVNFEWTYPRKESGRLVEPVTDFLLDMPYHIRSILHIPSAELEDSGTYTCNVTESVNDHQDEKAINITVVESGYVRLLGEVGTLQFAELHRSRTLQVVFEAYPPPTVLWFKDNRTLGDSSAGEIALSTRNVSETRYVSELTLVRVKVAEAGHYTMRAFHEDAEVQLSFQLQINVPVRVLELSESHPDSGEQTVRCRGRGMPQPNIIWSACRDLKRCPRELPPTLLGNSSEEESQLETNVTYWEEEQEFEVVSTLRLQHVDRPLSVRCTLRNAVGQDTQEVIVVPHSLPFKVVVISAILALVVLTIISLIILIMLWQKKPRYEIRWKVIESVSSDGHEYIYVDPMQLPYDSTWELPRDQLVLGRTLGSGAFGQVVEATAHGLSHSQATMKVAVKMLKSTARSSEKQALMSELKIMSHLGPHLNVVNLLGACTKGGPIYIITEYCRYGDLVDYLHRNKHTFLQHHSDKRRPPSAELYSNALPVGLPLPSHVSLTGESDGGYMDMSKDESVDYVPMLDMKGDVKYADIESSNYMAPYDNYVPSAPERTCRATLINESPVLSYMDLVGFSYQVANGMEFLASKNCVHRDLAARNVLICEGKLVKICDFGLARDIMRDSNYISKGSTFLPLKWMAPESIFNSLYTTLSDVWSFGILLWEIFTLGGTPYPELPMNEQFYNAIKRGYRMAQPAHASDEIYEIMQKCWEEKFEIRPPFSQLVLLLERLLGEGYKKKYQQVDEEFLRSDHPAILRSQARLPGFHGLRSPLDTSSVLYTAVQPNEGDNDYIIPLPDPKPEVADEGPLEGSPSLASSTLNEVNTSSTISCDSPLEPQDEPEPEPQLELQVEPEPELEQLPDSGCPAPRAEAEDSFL
Sequence of Mast/stem cell growth factor receptor Kit (Homo sapiens) (P10721 whole entry): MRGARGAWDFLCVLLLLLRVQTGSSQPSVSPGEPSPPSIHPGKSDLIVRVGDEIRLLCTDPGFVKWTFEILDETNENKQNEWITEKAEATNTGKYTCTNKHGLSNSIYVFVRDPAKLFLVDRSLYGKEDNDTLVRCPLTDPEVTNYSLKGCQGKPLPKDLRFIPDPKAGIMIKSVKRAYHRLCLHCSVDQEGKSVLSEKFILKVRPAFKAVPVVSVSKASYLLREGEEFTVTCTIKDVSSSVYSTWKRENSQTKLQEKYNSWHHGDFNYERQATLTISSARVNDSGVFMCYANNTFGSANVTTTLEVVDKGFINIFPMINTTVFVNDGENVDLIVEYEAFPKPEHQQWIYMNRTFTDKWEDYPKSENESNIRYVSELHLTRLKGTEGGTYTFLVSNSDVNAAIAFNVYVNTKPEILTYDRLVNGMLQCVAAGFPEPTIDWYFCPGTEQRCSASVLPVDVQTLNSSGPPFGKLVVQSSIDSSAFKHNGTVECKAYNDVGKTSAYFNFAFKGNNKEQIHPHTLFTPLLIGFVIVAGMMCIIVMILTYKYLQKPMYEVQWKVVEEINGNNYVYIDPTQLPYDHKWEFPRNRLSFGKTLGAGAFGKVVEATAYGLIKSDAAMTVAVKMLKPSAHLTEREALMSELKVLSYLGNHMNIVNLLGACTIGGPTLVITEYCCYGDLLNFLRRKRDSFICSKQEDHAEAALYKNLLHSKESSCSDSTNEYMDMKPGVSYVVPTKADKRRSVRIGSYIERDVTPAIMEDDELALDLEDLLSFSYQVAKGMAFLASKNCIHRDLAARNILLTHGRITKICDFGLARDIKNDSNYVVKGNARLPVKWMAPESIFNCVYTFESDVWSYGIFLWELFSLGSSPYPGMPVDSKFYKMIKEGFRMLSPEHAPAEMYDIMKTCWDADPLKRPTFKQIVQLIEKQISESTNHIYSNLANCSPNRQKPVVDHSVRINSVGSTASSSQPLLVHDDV
Sequence of Tyrosine-protein kinase CSK (Homo sapiens) (P41240 2-450 limits assumed): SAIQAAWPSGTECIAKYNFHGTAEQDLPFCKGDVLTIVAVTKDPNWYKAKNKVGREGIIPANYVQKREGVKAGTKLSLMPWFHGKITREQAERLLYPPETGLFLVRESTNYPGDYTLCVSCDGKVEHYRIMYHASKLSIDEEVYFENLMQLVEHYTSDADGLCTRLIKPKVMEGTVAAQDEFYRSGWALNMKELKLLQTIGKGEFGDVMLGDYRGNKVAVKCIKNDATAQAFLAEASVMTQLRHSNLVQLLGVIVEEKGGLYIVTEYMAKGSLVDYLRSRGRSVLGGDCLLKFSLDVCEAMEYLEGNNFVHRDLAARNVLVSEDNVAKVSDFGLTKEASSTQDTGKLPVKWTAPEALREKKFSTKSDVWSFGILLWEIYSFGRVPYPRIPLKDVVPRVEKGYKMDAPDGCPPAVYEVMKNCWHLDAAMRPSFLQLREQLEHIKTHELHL
Sequence of Serine/threonine-protein kinase PAK 4 (Homo sapiens) (O96013 whole entry, looked up): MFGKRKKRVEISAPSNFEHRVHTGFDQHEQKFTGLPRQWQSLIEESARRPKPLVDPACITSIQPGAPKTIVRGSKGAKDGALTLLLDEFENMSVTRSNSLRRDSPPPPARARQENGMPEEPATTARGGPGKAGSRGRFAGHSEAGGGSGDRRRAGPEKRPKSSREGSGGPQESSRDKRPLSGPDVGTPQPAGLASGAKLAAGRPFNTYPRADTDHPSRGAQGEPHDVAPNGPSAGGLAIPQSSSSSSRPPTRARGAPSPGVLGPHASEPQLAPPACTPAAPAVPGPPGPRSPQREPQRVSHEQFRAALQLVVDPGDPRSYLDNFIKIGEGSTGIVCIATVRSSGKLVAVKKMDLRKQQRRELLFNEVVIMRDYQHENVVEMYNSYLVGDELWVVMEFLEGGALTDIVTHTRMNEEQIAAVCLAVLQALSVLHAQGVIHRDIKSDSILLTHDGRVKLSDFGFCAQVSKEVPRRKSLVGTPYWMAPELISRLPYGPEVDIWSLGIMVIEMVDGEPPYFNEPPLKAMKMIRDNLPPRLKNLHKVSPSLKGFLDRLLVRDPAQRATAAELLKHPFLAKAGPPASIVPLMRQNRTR

For orientation: inhibition means the share of the control response that was lost under treatment. High values mean a response far below the control, low ones a response near the control. As for `Cn1c(=O)c(Oc2ccc(F)cc2F)cc2cnc(NC3CCN(S(N)(=O)=O)CC3)nc21`, the inhibition in experiment [1] came out at 32%; in [2] it was 13%; in [3], 27%; in experiment [4], 8%; in experiment [5] it was 22%; in experiment [6], 10%. Besides, the inhibition in experiment [7] was found to be 10%; in experiment [8] it was 0%; in [9], 13%; in [10], 1%; in experiment [11], 16%; in experiment [12], 16%. The inhibition is 17% in experiment [13] and 7% in experiment [14].
